Experimental data reported in ChEMBL document CHEMBL1909294, “Translating clinical findings into knowledge in drug safety evaluation--drug induced liver injury prediction system (DILIps)” (PLoS Comput Biol, 2011).

Legend:
[1] = system: Hepatotoxicity;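 for HepSE bilirubinemia: bilirubinemia hepatic side effect score drawn from the DILIps training data, a prediction system for drug-induced liver injury; call rule not given here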;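 for HepSE cholecystitis: Cholecystitis-related hepatic side effect score drawn from the DILIps (drug-induced liver injury prediction) training data set; call rule not given here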;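 for HepSE cholelithiasis: hepatic side effect score for cholelithiasis, drawn from the DILIps training data for predicting drug-induced liver injury; call rule not given here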;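 for HepSE cirrhosis: cirrhosis hepatic side effect score taken from the DILIps (drug-induced liver injury prediction) training set; call rule not given here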;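 for HepSE elevated liver function tests: hepatic side effect score for raised liver function tests, as recorded in the DILIps training set used for predicting drug-induced liver injury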; for HepSE hepatic failure: call rule not given here;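 for HepSE hepatomegaly: hepatic side effect score for hepatomegaly, taken from the training set of the DILIps drug-induced liver injury prediction system; call rule not given here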
[2] = system: Hepatotoxicity; remark: listed apart in the source;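 for HepSE bilirubinemia: bilirubinemia hepatic side effect score drawn from the DILIps training data, a prediction system for drug-induced liver injury; call rule not given here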;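 for HepSE cholecystitis: Cholecystitis-related hepatic side effect score drawn from the DILIps (drug-induced liver injury prediction) training data set; call rule not given here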;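 for HepSE cholelithiasis: hepatic side effect score for cholelithiasis, drawn from the DILIps training data for predicting drug-induced liver injury; call rule not given here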;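 for HepSE cirrhosis: cirrhosis hepatic side effect score taken from the DILIps (drug-induced liver injury prediction) training set; call rule not given here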;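 for HepSE elevated liver function tests: hepatic side effect score for raised liver function tests, as recorded in the DILIps training set used for predicting drug-induced liver injury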; for HepSE hepatic failure: call rule not given here
[3] = system: Hepatotoxicity; remark: listed apart in the source;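 for HepSE bilirubinemia: bilirubinemia hepatic side effect score drawn from the DILIps training data, a prediction system for drug-induced liver injury; call rule not given here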;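 for HepSE cholecystitis: Cholecystitis-related hepatic side effect score drawn from the DILIps (drug-induced liver injury prediction) training data set; call rule not given here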;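 for HepSE cholelithiasis: hepatic side effect score for cholelithiasis, drawn from the DILIps training data for predicting drug-induced liver injury; call rule not given here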;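 for HepSE cirrhosis: cirrhosis hepatic side effect score taken from the DILIps (drug-induced liver injury prediction) training set; call rule not given here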;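 for HepSE elevated liver function tests: hepatic side effect score for raised liver function tests, as recorded in the DILIps training set used for predicting drug-induced liver injury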; for HepSE hepatic failure: call rule not given here
[4] = system: Hepatotoxicity; remark: listed apart in the source;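 for HepSE bilirubinemia: bilirubinemia hepatic side effect score drawn from the DILIps training data, a prediction system for drug-induced liver injury; call rule not given here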;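 for HepSE cholecystitis: Cholecystitis-related hepatic side effect score drawn from the DILIps (drug-induced liver injury prediction) training data set; call rule not given here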;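 for HepSE cholelithiasis: hepatic side effect score for cholelithiasis, drawn from the DILIps training data for predicting drug-induced liver injury; call rule not given here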;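 for HepSE cirrhosis: cirrhosis hepatic side effect score taken from the DILIps (drug-induced liver injury prediction) training set; call rule not given here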;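 for HepSE elevated liver function tests: hepatic side effect score for raised liver function tests, as recorded in the DILIps training set used for predicting drug-induced liver injury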; for HepSE hepatic failure: call rule not given here
[5] = system: Hepatotoxicity; remark: listed apart in the source; for HepSE hepatic failure: call rule not given here
[6] = system: Hepatotoxicity; remark: listed apart in the source; for HepSE hepatic failure: call rule not given here
[7] = system: Hepatotoxicity; remark: listed apart in the source
[8] = system: Hepatotoxicity; remark: listed apart in the source
[9] = system: Hepatotoxicity; remark: listed apart in the source
[10] = system: Hepatotoxicity; remark: listed apart in the source
[11] = system: Hepatotoxicity; remark: listed apart in the source
[12] = system: Hepatotoxicity; remark: listed apart in the source
[13] = system: Hepatotoxicity; remark: listed apart in the source
[14] = system: Hepatotoxicity; remark: listed apart in the source

| Structure (SMILES) | HepSE_bilirubinemia [1] | HepSE_cholecystitis [2] | HepSE_cholelithiasis [3] | HepSE_cirrhosis [4] | HepSE_elevated liver function tests [5] | HepSE_hepatic failure [6] | HepSE_hepatic necrosis [7] | HepSE_hepatitis [8] | HepSE_hepatomegaly [9] | HepSE_jaundice [10] | HepSE_liver disease [11] | HepSE_liver fatty [12] | HepSE_liver function tests abnormal [13] | HepSE_Combined Scores [14] | further results |
| --- | --- | --- | --- | --- | --- | --- | --- | --- | --- | --- | --- | --- | --- | --- | --- |
| COCCCOc1ccnc(C[S+]([O-])c2nc3ccccc3[nH]2)c1C (centres undefined) [RABEPRAZOLE] | 0 | 1 | 1 | 1 | 0 | 0 | 0 | 1 | 0 | 1 | 0 | 1 | 1 | 7 | – |
| O=C(c1ccc(OCCN2CCCCC2)cc1)c1c(-c2ccc(O)cc2)sc2cc(O)ccc12 [RALOXIFENE] | 0 | 0 | 1 | 0 | 0 | 0 | 0 | 0 | 0 | 0 | 0 | 0 | 0 | 1 | – |
| Cc1nc2ccc(CN(C)c3ccc(C(=O)N[C@@H](CCC(=O)O)C(=O)O)s3)cc2c(=O)[nH]1 [RALTITREXED] | 0 | 0 | 0 | 0 | 0 | 1 | 0 | 0 | 0 | 0 | 0 | 0 | 0 | 1 | – |
| CNC(=C[N+](=O)[O-])NCCSCc1ccc(CN(C)C)o1 [RANITIDINE] | 0 | 0 | 0 | 0 | 0 | 1 | 0 | 1 | 0 | 1 | 1 | 0 | 0 | 4 | – |
| COc1ccccc1OCC(O)CN1CCN(CC(=O)Nc2c(C)cccc2C)CC1 (centres undefined) [RANOLAZINE] | 0 | 0 | 0 | 0 | 0 | 0 | 0 | 0 | 0 | 0 | 0 | 0 | 0 | 0 | – |
| C#CCN[C@@H]1CCc2ccccc21 [RASAGILINE] | – | – | – | – | – | – | – | – | – | – | – | – | – | – | HepSE_bilirubinemia ([1]; Liver): 0; HepSE_cholecystitis ([2]; Liver): 0; HepSE_cholelithiasis ([3]; Liver): 0; HepSE_cirrhosis ([4]; Liver): 0; HepSE_elevated liver function tests ([5]; Liver): 0; HepSE_hepatic failure ([6]; Liver): 0; HepSE_hepatic necrosis ([7]; Liver): 0; HepSE_hepatitis ([8]; Liver): 0; HepSE_hepatomegaly ([9]; Liver): 0; HepSE_jaundice ([10]; Liver): 1; HepSE_liver disease ([11]; Liver): 0; HepSE_liver fatty ([12]; Liver): 0; HepSE_liver function tests abnormal ([13]; Liver): 1; HepSE_Combined Scores ([14]; Liver): 2 |
| CCOc1cc(CC(=O)N[C@@H](CC(C)C)c2ccccc2N2CCCCC2)ccc1C(=O)O [REPAGLINIDE] | 0 | 0 | 0 | 0 | 0 | 0 | 0 | 1 | 0 | 1 | 0 | 0 | 0 | 2 | – |
| COC(=O)[C@H]1[C@H]2C[C@@H]3c4[nH]c5cc(OC)ccc5c4CCN3C[C@H]2C[C@@H](OC(=O)c2cc(OC)c(OC)c(OC)c2)[C@@H]1OC [RESERPINE] | 0 | 0 | 0 | 0 | 0 | 0 | 0 | 0 | 0 | 0 | 0 | 0 | 0 | 0 | – |
| CC1=C(/C=C/C(C)=C/C=C/C(C)=C/CO)C(C)(C)CCC1 [RETINOL] | – | – | – | – | – | – | – | – | – | – | – | – | – | – | HepSE_bilirubinemia ([1]; Liver): 0; HepSE_cholecystitis ([2]; Liver): 0; HepSE_cholelithiasis ([3]; Liver): 0; HepSE_cirrhosis ([4]; Liver): 0; HepSE_elevated liver function tests ([5]; Liver): 0; HepSE_hepatic failure ([6]; Liver): 0; HepSE_hepatic necrosis ([7]; Liver): 0; HepSE_hepatitis ([8]; Liver): 0; HepSE_hepatomegaly ([9]; Liver): 0; HepSE_jaundice ([10]; Liver): 0; HepSE_liver disease ([11]; Liver): 0; HepSE_liver fatty ([12]; Liver): 0; HepSE_liver function tests abnormal ([13]; Liver): 0; HepSE_Combined Scores ([14]; Liver): 0 |
| NC(=O)c1ncn([C@@H]2O[C@H](CO)[C@@H](O)[C@H]2O)n1 [RIBAVIRIN] | 1 | 0 | 0 | 0 | 0 | 1 | 0 | 0 | 1 | 0 | 0 | 1 | 0 | 4 | – |
| CO[C@H]1/C=C/O[C@@]2(C)Oc3c(C)c(O)c4c(c3C2=O)C2=NC3(CCN(CC(C)C)CC3)NC2=C(NC(=O)/C(C)=C\C=C\[C@H](C)[C@H](O)[C@@H](C)[C@@H](O)[C@@H](C)[C@H](OC(C)=O)[C@@H]1C)C4=O [RIFABUTIN] | – | – | – | – | – | – | – | – | – | – | – | – | – | – | HepSE_bilirubinemia ([1]; Liver): 0; HepSE_cholecystitis ([2]; Liver): 0; HepSE_cholelithiasis ([3]; Liver): 0; HepSE_cirrhosis ([4]; Liver): 0; HepSE_elevated liver function tests ([5]; Liver): 0; HepSE_hepatic failure ([6]; Liver): 0; HepSE_hepatic necrosis ([7]; Liver): 0; HepSE_hepatitis ([8]; Liver): 1; HepSE_hepatomegaly ([9]; Liver): 0; HepSE_jaundice ([10]; Liver): 0; HepSE_liver disease ([11]; Liver): 0; HepSE_liver fatty ([12]; Liver): 0; HepSE_liver function tests abnormal ([13]; Liver): 0; HepSE_Combined Scores ([14]; Liver): 1 |
| CO[C@H]1/C=C/O[C@@]2(C)Oc3c(C)c(O)c4c(O)c(c(/C=N/N5CCN(C)CC5)c(O)c4c3C2=O)NC(=O)/C(C)=C\C=C\[C@H](C)[C@H](O)[C@@H](C)[C@@H](O)[C@@H](C)[C@H](OC(C)=O)[C@@H]1C [RIFAMPIN] | 0 | 0 | 0 | 0 | 0 | 0 | 0 | 1 | 0 | 1 | 0 | 0 | 1 | 3 | – |
| CO[C@H]1/C=C/O[C@@]2(C)Oc3c(C)c(O)c4c(O)c(c(/C=N/N5CCN(C6CCCC6)CC5)c(O)c4c3C2=O)NC(=O)/C(C)=C\C=C\[C@H](C)[C@H](O)[C@@H](C)[C@@H](O)[C@@H](C)[C@H](OC(C)=O)[C@@H]1C [RIFAPENTINE] | 1 | 0 | 0 | 0 | 0 | 0 | 0 | 1 | 0 | 0 | 0 | 0 | 0 | 2 | – |
| CO[C@H]1/C=C/O[C@@]2(C)Oc3c(C)c(O)c4c(O)c(c5c(nc6cc(C)ccn65)c4c3C2=O)NC(=O)/C(C)=C\C=C\[C@H](C)[C@H](O)[C@@H](C)[C@@H](O)[C@@H](C)[C@H](OC(C)=O)[C@@H]1C [RIFAXIMIN] | 0 | 0 | 0 | 0 | 0 | 0 | 0 | 0 | 0 | 0 | 0 | 0 | 0 | 0 | – |
| Nc1nc2ccc(OC(F)(F)F)cc2s1 [RILUZOLE] | 0 | 1 | 0 | 0 | 0 | 0 | 0 | 1 | 0 | 1 | 0 | 0 | 0 | 3 | – |
| CC(N)C12CC3CC(CC(C3)C1)C2 (centres undefined) [RIMANTADINE] | 0 | 0 | 0 | 0 | 0 | 0 | 0 | 0 | 0 | 0 | 0 | 0 | 0 | 0 | – |
